The source of these data is ChEMBL document CHEMBL3784917, “Recent Progress in Histone Demethylase Inhibitors” (J Med Chem, 2016).

For this assay, the target named is Lysine-specific demethylase 4E (Homo sapiens, UniProt B2RXH2). Put plainly: Inhibition of KDM4E (unknown origin) after 24 hrs by alphascreen assay.
Chain of Lysine-specific demethylase 4E (B2RXH2 whole entry): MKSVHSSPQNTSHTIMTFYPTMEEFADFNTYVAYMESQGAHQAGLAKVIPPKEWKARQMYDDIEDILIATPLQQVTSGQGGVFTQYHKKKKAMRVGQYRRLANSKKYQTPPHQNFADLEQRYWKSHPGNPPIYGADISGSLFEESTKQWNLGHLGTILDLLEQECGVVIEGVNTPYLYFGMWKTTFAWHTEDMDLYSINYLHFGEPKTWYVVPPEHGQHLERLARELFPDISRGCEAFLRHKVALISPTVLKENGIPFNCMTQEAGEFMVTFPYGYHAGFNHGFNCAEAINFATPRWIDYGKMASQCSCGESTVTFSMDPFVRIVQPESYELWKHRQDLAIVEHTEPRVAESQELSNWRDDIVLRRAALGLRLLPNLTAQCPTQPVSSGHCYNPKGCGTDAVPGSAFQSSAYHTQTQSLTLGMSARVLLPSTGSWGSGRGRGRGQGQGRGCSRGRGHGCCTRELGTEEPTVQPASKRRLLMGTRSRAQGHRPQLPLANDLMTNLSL

With `CCCCCCCCOC(=O)c1ccc(O)c2ncccc12`, the concentration for half-maximal inhibition (IC50) came to 45 µM.
